Results published in patent US4994485A, “Thio compounds having fungicidal activity” (Duphar International Research B.V., priority 1986, dated 1991).

Key:
[1] = tested on: Pythium splendens; assay: In vitro test on activity against Pythium splendens; format: cell-based; conditions: Globisporangium splendens, read-out: growth inhibition of the fungus
[2] = tested on: Pythium spp.; assay: Protection of seedlings against plant-pathogenic soil fungus by seed treatment (beet); format: in vivo; conditions: after 3 weeks, 18°-22° C., untreated 72
Description: Test with respect to the protection of seedlings against a plant-pathogenicsoil fungus, namely Pythium spp., by means of a seed treatment.
The compounds to be tested are processed to compositions by pulverising them and then mixing them intimately with kaolin in the desired concentration (see Table B). Beet seed is treated with these compositions in a quantity of 6 g of composition per kg of seed and then sown in trays with soil which was seriously infested with Pythium spp. After 3 weeks in a glass-house at 18°-22° C. and a relative humidity of 70-100%, the percentage of non-emerged and diseased seedlings (damping-off) is determined. The results are recorded in Table B. For comparison, the known substance 2-methylsulphinyl-4-methyl-5-nitrothiazole(a) is also tested.

[3] = tested on: Pyrenophora graminea; assay: In vitro test on activity against Pyrenophora graminea; format: cell-based; conditions: 48 hours, 20° C., read-out: % growth inhibition of the fungus
Description: In vitro test on activity against Pyrenophora graminea.
(§1) The compound to be tested is processed in a culture medium consisting of 1% by weight of glucose, 0.2% by weight of a yeast extract (marmite), 0.5% by weight of a protein (pepton), 2.5% by weight of agar-agar, and 95.8% by weight of water, in petri dishes in concentrations of 3 and 10 ppm. The petri dishes are inoculated with the plant-pathogenic fungus Pyrenophora graminea and then kept at a temperature of 20° C. After 48 hours the growth-inhibiting activity of the compounds is determined visually. For comparison, the known substance (b) (see EXAMPLE XV) is also tested.

[4] = tested on: Fusarium culmorum; assay: In vitro test on activity against Fusarium culmorum; format: cell-based; conditions: read-out: growth inhibition of the fungus
[5] = tested on: Leptosphaeria nodorum; assay: In vitro test on activity against Leptosphaeria nodorum; format: cell-based; conditions: Parastagonospora nodorum, read-out: growth inhibition of the fungus
Description: as §1
Compounds according to the invention are tested on i Leptosphaeria nodorum in the same manner as described in EXAMPLE XIX.

[6] = tested on: Rhizoctonia solani; assay: In vitro test on activity against Rhizoctonia solani; format: cell-based; conditions: read-out: growth inhibition of the fungus
Description: as §1, with “in petri dishes in concentrations of 3 and 10 ppm.” left out
Compounds according to the invention are tested on Rhizoctonia solani in the same manner as described in EXAMPLE XIX.

[7] = tested on: Fusarium culmorum; assay: Protection of seedlings against plant pathogenic seed fungus by seed treatment (wheat); format: in vivo; conditions: wheat seed infested with Fusarium culmorum; 3 g composition (10% by weight in kaolin) per kg of seed; after three weeks, 8°-12° C.; untreated 67
Description: Test with respect to the protection of seedlings against a plant pathogenic seed fungus, namely Fusarium culmorum, by means of a seed treatment.
Wheat seed, infested with Fusarium culmorum, is treated with the substance to be tested in the form of a composi tion in a quantity of 3 g per kg of seed. The composition is obtained by pulverising the substance to be tested and then intimately mixing with kaolin in a concentration of 10% by weight. The seed thus treated is sown in a tray containing soil which is placed in a Wisconsin tank with a bottom temperature of 8°-12° C. After three weeks the number of emerged and healthy plants is determined. The emergence of healthy plants from untreated seed serves as control. For comparison, the known substances 2-methylsulphinyl-4-methyl-5-nitrothiazole (a), 2-methylsulphinyl-3-nitrothiophene (b) and 2-ethylsulphinyl-3-nitro-5-acetylthiophene (c) mentioned hereinbefore are also tested. In the examples, the numbers of the compounds refer to the specification.

[8] = Acute oral toxicity (lethal dose) in male mice; conditions: mouse, in vivo, acute mortality, mg/kg of body weight
Description: Toxicity with respect to warm-blooded living beings.
The LD50 is determined by orally administering the substance to be tested to male mice and determining the acute mortality. In Table C below, the LD50 is recorded in mg/kg of body weight.
For comparison, the known compound (b) (see EXAMPLE XV) is also tested.

[9] = tested on: soil-borne and seed-borne pathogenic micro-organisms; assay: Fungicidal activity in practice (general statement); conditions: in words
[10] = tested on: warm-blooded living beings; assay: Toxicity with respect to warm-blooded living beings (general statement); conditions: in words
[11] = 600 mg of active substance per kg of seed
[12] = 1200 mg of active substance per kg of seed

CC(=O)c1sc([S+](C)[O-])c(C#N)c1Cl (centres unmarked) [(2), 2-methylsulphinyl-3-cyano-4-chloro-5-acetylthiophene]
inhibition at 10 ppm [1]: ≥ 95%
percentage damping-off [2, 11]: 7%
percentage damping-off [2, 12]: 6%
inhibition at 3 ppm [3]: 64%
inhibition at 10 ppm [3]: 79%
inhibition at 30 ppm [4]: ≥ 75%
inhibition at 30 ppm [5]: ≥ 85%
inhibition at 30 ppm [6]: ≥ 75%
Percentage of emerged, healthy plants [7]: 87%

C[S+]([O-])c1sc(C#N)c(Cl)c1C#N (centres unmarked) [(3), 2-methylsulphinyl-3,5-dicyano-4-chlorothiophene]
inhibition at 10 ppm [1]: ≥ 95%
percentage damping-off [2, 11]: 6%
percentage damping-off [2, 12]: 5%
inhibition at 3 ppm [3]: 57%
inhibition at 10 ppm [3]: 80%
inhibition at 30 ppm [4]: ≥ 75%
inhibition at 30 ppm [5]: ≥ 85%
inhibition at 30 ppm [6]: ≥ 75%
Percentage of emerged, healthy plants [7]: 91%

C[S+]([O-])c1sc(C#N)cc1C#N (centres unmarked) [(4), 2-methylsulphinyl-3,5-dicyanothiophene]
inhibition at 10 ppm [1]: ≥ 95%
percentage damping-off [2, 11]: 10%
percentage damping-off [2, 12]: 9%
inhibition at 3 ppm [3]: 66%
inhibition at 10 ppm [3]: 84%
inhibition at 30 ppm [5]: ≥ 85%
inhibition at 30 ppm [6]: ≥ 75%
Percentage of emerged, healthy plants [7]: 90%

CC[S+]([O-])c1sc(C#N)c(Cl)c1C#N (centres unmarked) [(7), 2-ethylsulphinyl-3,5-dicyano-4-chlorothiophene]
inhibition at 10 ppm [1]: ≥ 95%
percentage damping-off [2, 11]: 17%
percentage damping-off [2, 12]: 17%
inhibition at 3 ppm [3]: 59%
inhibition at 10 ppm [3]: 83%
inhibition at 30 ppm [4]: ≥ 75%
inhibition at 30 ppm [5]: ≥ 85%
Percentage of emerged, healthy plants [7]: 98%
LD50 [8]: 400 mg/kg

CC[S+]([O-])c1sc(C#N)cc1C#N (centres unmarked) [(8), 2-ethylsulphinyl-3,5-dicyanothiophene]
inhibition at 10 ppm [1]: ≥ 95%
percentage damping-off [2, 11]: 16%
percentage damping-off [2, 12]: 12%
inhibition at 3 ppm [3]: 49%
inhibition at 10 ppm [3]: 72%
Percentage of emerged, healthy plants [7]: 92%
LD50 [8]: 119 mg/kg

CC[S+]([O-])c1sc(C(C)=O)c(N)c1C#N (centres unmarked) [(10), 2-ethylsulphinyl-3-cyano-4-amino-5-acetylthiophene]
inhibition at 10 ppm [1]: ≥ 95%
percentage damping-off [2, 11]: 10%
percentage damping-off [2, 12]: 9%
inhibition at 30 ppm [5]: ≥ 85%
Percentage of emerged, healthy plants [7]: 98%
LD50 [8]: 141 mg/kg

CC[S+]([O-])c1sc(C#N)c(OC)c1C#N (centres unmarked) [(13), 2-ethylsulphinyl-3,5-dicyano-4-methoxythiophene]
inhibition at 10 ppm [1]: ≥ 95%
percentage damping-off [2, 11]: 3%
percentage damping-off [2, 12]: 1%
inhibition at 30 ppm [4]: ≥ 75%
inhibition at 30 ppm [5]: ≥ 85%
Percentage of emerged, healthy plants [7]: 90%
LD50 [8]: 130 mg/kg

CC[S+]([O-])c1sc2cc([N+](=O)[O-])ccc2c1C#N (centres unmarked) [(27), 2-ethylsulphinyl-3-cyano-6-nitro-benzothiophene]
inhibition at 10 ppm [1]: ≥ 95%
percentage damping-off [2, 11]: 4%
percentage damping-off [2, 12]: 2%
inhibition at 30 ppm [4]: ≥ 75%
inhibition at 30 ppm [5]: ≥ 85%
inhibition at 30 ppm [6]: ≥ 75%
Percentage of emerged, healthy plants [7]: 96%

CCC[S+]([O-])c1sc(C#N)c(Cl)c1C#N (centres unmarked) [(33), 2-n-propylsulphinyl-3,5-dicyano-4-chlorothiophene]
inhibition at 10 ppm [1]: ≥ 95%
inhibition at 10 ppm [3]: 83%
inhibition at 30 ppm [4]: ≥ 75%
inhibition at 30 ppm [5]: ≥ 85%
inhibition at 30 ppm [6]: ≥ 75%
LD50 [8]: 246 mg/kg

CCCC[S+]([O-])c1sc(C(C)=O)c(Cl)c1C#N (centres unmarked) [(39), 2-n-butylsulphinyl 3-cyano-4-chloro-5-acetylthiophene]
inhibition at 10 ppm [1]: ≥ 95%
inhibition at 10 ppm [3]: 81%
inhibition at 30 ppm [4]: ≥ 75%
inhibition at 30 ppm [6]: ≥ 75%

C[S+]([O-])c1sc(C(=O)c2ccc(Cl)cc2)c(Cl)c1C#N (centres unmarked) [(42), 2-methylsulphinyl-3-cyano-4-chloro-5-(4-chlorobenzoyl) thiophene]
inhibition at 10 ppm [1]: ≥ 95%
inhibition at 30 ppm [4]: ≥ 75%
inhibition at 30 ppm [5]: ≥ 85%
inhibition at 30 ppm [6]: ≥ 75%

CCCC[S+]([O-])c1sc(C#N)c(Cl)c1C#N (centres unmarked) [(43), 2-n-butylsulphinyl-3,5-dicyano-4-chlorothiophene]
inhibition at 10 ppm [1]: ≥ 95%
inhibition at 10 ppm [3]: 72%
inhibition at 30 ppm [4]: ≥ 75%
inhibition at 30 ppm [5]: ≥ 85%
inhibition at 30 ppm [6]: ≥ 75%
LD50 [8]: 246 mg/kg

C[S+]([O-])c1sc(C(=O)c2ccc(Cl)cc2)cc1C#N (centres unmarked) [(52), 2-methylsulphinyl-3-cyano-5-(4-chlorobenzoyl)thiophene]
inhibition at 10 ppm [1]: ≥ 95%
inhibition at 10 ppm [3]: 71%
inhibition at 30 ppm [4]: ≥ 75%
inhibition at 30 ppm [6]: ≥ 75%

C[S+]([O-])c1sc(C#N)c(Sc2ccccc2)c1C#N (centres unmarked) [(85), 2-methylsulphinyl-3,5-dicyano-4-phenylthio-thiophene]
inhibition at 10 ppm [1]: ≥ 95%
inhibition at 10 ppm [3]: 73%
inhibition at 30 ppm [4]: ≥ 75%
inhibition at 30 ppm [5]: ≥ 85%
inhibition at 30 ppm [6]: ≥ 75%

Cc1nc([S+](C)[O-])sc1[N+](=O)[O-] (centres unmarked) [(a), 2-methylsulphinyl-4-methyl-5-nitrothiazole, reference compound]
percentage damping-off [2, 11]: 57%
percentage damping-off [2, 12]: 45%
Percentage of emerged, healthy plants [7]: 68%
activity [9]: insufficiently active

C[S+]([O-])c1sccc1[N+](=O)[O-] (centres unmarked) [(b), 2-methylsulphinyl-3-nitrothiophene, reference compound]
toxicity with respect to warm-blooded living beings [10]: undesired toxicity
inhibition at 3 ppm [3]: 0%
inhibition at 10 ppm [3]: 37%
Percentage of emerged, healthy plants [7]: 75%
LD50 [8]: 31.6 mg/kg
activity [9]: leaves to be desired in practice

CC[S+]([O-])c1sc(C(C)=O)cc1[N+](=O)[O-] (centres unmarked) [(c), 2-ethylsulphinyl-3-nitro-5-acetylthiophene]
toxicity with respect to warm-blooded living beings [10]: undesired toxicity
Percentage of emerged, healthy plants [7]: 74%
activity [9]: leaves to be desired in practice
